One assay deals with P388. Put plainly: Cytotoxicity against mouse P388 cells after 72 hrs by MTT assay. Type of assay: functional, cell-based. The note with it: P388, 72 h. On the technique in general: Tetrazolium dyes change colour on reduction, which living cells bring about.
Assay [1] deals with Trichophyton mentagrophytes. The assay is described as follows: Antifungal activity against Trichophyton mentagrophytes ATCC 28185 at 100 IU. The class given is functional, organism-based.
In the next assay the test system is Amorphotheca resinae. The assay is described as follows: Antifungal activity against Cladosporium resinae at 100 IU. The class given is functional, organism-based.
The subject of another assay is Bacillus subtilis. Put plainly: Antibacterial activity against Bacillus subtilis ATCC 19659 at 30 ug. The class given is functional. The conditions noted are these: read-out: IZ.

For eight molecules, IC50, inhibition zone (IZ) and zone of inhibition results are on record in ChEMBL document CHEMBL1153021, “Phenylphenalenones from the Australian plant Haemodorum simplex” (J Nat Prod, 2009).

Bounds are passed on as bounds.

As a reminder, the IC50 is the concentration needed to halve the response being measured. A low value points to greater potency in that assay. In the assay with P388, `COC1=Cc2cc(O)c(O[C@@H]3O[C@H](CO)[C@@H](O)[C@H](O)[C@H]3O)c3c(-c4ccccc4)ccc(c23)C1=O` [DILATRIN] yielded an IC50 above 26 µM.

Molecule `COc1c(O)cc2c3c(ccc(-c4ccc(O)cc4)c13)C(=O)OC2=O` [HAEMODOROL] displayed an IC50 with P388 above 26 µM.

Consider NYSTATIN, for which the figures for the inhibition zone (IZ) (in assay [1]; in the assay on Amorphotheca resinae) were 6 mm and 10 mm, respectively.

For the molecule `COc1cc2c3c(ccc(-c4ccccc4)c3c1O[C@@H]1O[C@H](CO)[C@@H](O)[C@H](O)[C@H]1O)C(=O)OC2` [HAEMODOROSE], in the assay on P388, the IC50 is above 26 µM.

With `COC1=Cc2cc(OC)c(O)c3c(-c4ccccc4)ccc(c23)C1=O` [XIPHIDONE], in the assay on P388, the IC50 was above 26 µM.

Molecule `COc1cc2c3c(ccc(-c4ccccc4)c3c1OC)C(=O)OC2=O` registered an IC50 with P388 above 26 µM.

For the molecule `O=C(N[C@H](CO)[C@H](O)c1ccc([N+](=O)[O-])cc1)C(Cl)Cl` [CHLORAMPHENICOL], in the assay with Bacillus subtilis, the zone of inhibition at 30 µg/disc stood at 12 mm.

In the assay on P388, `COc1c(O)cc2c3c(ccc(-c4ccccc4)c13)C(=O)OC2=O` [HAEMODORONE] had an IC50 above 26 µM.
